According to patent publication US11439631B2, “Use of a glutarimide derivative to treat diseases related to the aberrant activity of cytokines” (“CHEMIMMUNE THERAPEUTICS” LIMITED LIABILITY COMPANY, priority 2017, dated 2022):

Experiments:
mouse model of psoriasis = test: Mouse model of psoriasis (Aldar cream, 5% imiquimod): ear thickness and clinical signs; type: in vivo, female Balb/c mice; conditions: Compound 1 30 mg/kg, Neotigason 5 mg/kg, M ± m, n = 20; for The gain of the ear thickness at the determined day of study to day 0, Day 2 / The gain of the ear thickness at the determined day of study to day 0, Day 3 / The gain of the ear thickness at the determined day of study to day 0, Day 4 / The gain of the ear thickness at the determined day of study to day 0, Day 5 / The gain of the ear thickness at the determined day of study to day 0, Day 6: intragastric once daily; for Clinical signs of psoriasis, Erythema, Day 4 / Clinical signs of psoriasis, Flakes, Day 4 / Clinical signs of psoriasis, Thickening, Day 4 / Clinical signs of psoriasis, Erythema, Day 6 / Clinical signs of psoriasis, Flakes, Day 6 / Clinical signs of psoriasis, Thickening, Day 6: score 0-4 (Table 1)
Procedure: (§1) The induction of psoriasis in mice was carried out according to the standard procedure [European Journal of Pharmacology. 2015. V. 756. P. 43-51]. Aldar cream (5% imiquimod) was applied to female Balb/c mice on the inner side of the right ear once daily by 30 mg/mouse for 7 days (0-6th day). Vaseline was applied to the intact animals. […] Euthanasia was carried out 24 hours later (7th day) after the last application of the Aldar cream. Daily on the 0, 2nd, 3rd, 4th, 5th, 6th day, the thickness of the right ear was measured in the morning before the next application of the Aldar cream and before the euthanasia. After the euthanasia, blood was collected from the heart cavities, serum was isolated. The content of MCP1 was determined in blood serum by an enzyme-linked immunosorbent assay method, using test systems Mouse CCL2 (MCP-1) Uncoated ELISA Kit (Invitrogen).
2011. V. 88(1-2). P. 100-113].

[1] = tested on: neutrophil and macrophage chemotaxis (carrageenan pouch); test: Macrophage and neutrophil chemotaxis model to the site of inflammation (carrageenan pouch) in mice; type: in vivo, female Balb/c mice
Procedure: The induction of macrophages and neutrophils chemotaxis to the site of inflammation (carrageenan pouch) in mice was tested according to the standard procedure [Curr Protoc Pharmacol. 2012. V. 5. P. 5-6]. […] After 3 days to maintain the integrity of the air pouch without increasing the wound, 2.5 ml of air was introduced at the same site. On day 6 under CO2 anesthesia to induce inflammation, 1 ml of 1% carrageenan solution prepared in physiological saline was administered directly into the pouch. The test compound was administered intragastrically 1 hour before the administration of carrageenan and then every 10-12 hours in the volume of 0.1 ml. The last administration is 12 hours before the slaughter. Euthanasia by the inhalation of CO2 was performed 48 hours after the carrageenan injection. Immediately after the euthanasia, 1 ml of physiological saline containing 5.4 mM of EDTA of room temperature was introduced into the pouch with a sterile syringe. After gentle massage of the region of the air pouch, a sagittal incision was made across the pouch and exudate was collected by a dispenser. After the centrifugation of the exudate from the cell pellet, smears were prepared, which were then fixed in methanol and were stained by Romanowsky-Giemsa. A quantity of macrophages and neutrophils was then determined on the smears under a microscope. The cell calculation was made up to 100 pcs.

[2] = tested on: acetic acid-induced abdominal constrictions; test: Specific pain reaction by chemical stimulation of peritoneum (abdominal constriction test); type: in vivo, Balb/c mice; conditions: 30 mg/kg intragastric, M ± m, n = 12
Procedure: The model of the specific pain reaction by the method of chemical stimulation of peritoneum (“abdominal constriction” test) was carried out according to the standard procedure. To conduct the “abdominal constriction” test, Balb/c mice were intraperitoneally administered with 1% acetic acid in a volume of 10 ml per kg of the animal body weight. The test compound was administered intragastrically, once, 1 or 2 hour(s) before the administration of acetic acid. A quantity of constrictions (convulsive twitching of the abdominal muscles accompanied with stretching hind quarters and arching) was evaluated 15 minutes after the administration of acetic acid.

[3] = tested on: non-infectious pneumonia induced by cigarette smoke extract; test: Non-infectious pneumonia induced by cigarette smoke extract, lung histology; type: in vivo, male Balb/c mice; conditions: 30 mg/kg intragastric daily day 7-27, 5-point scale; M ± m, n = 12
Procedure: The induction of non-infectious pneumonia in mice was carried out according to the standard procedure [Zhang Yl, Cao J, Chen Y, Chen P, Peng H, Cai S, Luo H, Wu SJ. […] Male Balb/c mice were intraperitoneally administered with cigarette smoke extract (CSE, 0.45 ml/20 mg) at 0, 11th, 15th, 17th, 19th and 22nd day. The CSE was prepared as follows: 5 cigarettes were burnt, using a vacuum pump, the smoke was filtered to remove particles and collected in a vessel containing a phosphate saline buffer. […] Euthanasia was carried out on the 28th day. The right lung lobe was fixed in 10% neutral formalin solution, passed through the alcohols of ascending concentrations to xylene, and embedded in paraffin by standard procedures. Deparaffinated 5-micron shears were stained with hematoxylin-eosin and the histological analysis was carried out.
Each lesion was evaluated according to a 5-point scale: 1 point—the inflammatory infiltrate occupies 0-20% of the area of the histological preparation under study, 2 point—the inflammatory infiltrate occupies 21-40% of the area of the histological preparation under study, 3 points—the inflammatory infiltrate occupies 41-60% of the area of the histological preparation under study, 4 points—the inflammatory infiltrate occupies 61-80% of the area of the histological preparation under study, 5 points—the inflammatory infiltrate occupies 81-100% of the area of the histological preparation under study. Alveolar destruction index (DI) as the percentage of the damaged alveoli relative to the total number of alveoli was also calculated.

[4] = tested on: non-infectious pneumonia induced by poly I:C; test: Non-infectious pneumonia induced by intranasal administration of poly I:C to mice (BAL neutrophils, lung histology); type: in vivo, female Balb/c mice
Procedure: The induction of pneumonia in mice was carried out according to the standard procedure [Eur Respir J. 2013 V. 41(5). […] Female Balb/c mice were intranasally administered with 8 μg/kg of polyinosine-polycytidylic acid (poly I:C) in 30 μl of PBS on days 1, 2, 3 and 4. Then at days 15, 16, 17 and 18, in the same volume 2 μg/kg of poly I:C were administered to the animals. […] All mice were sacrificed on the 19th day of the study. The bronchus from the right lung was pinched by the ligature, the left lung was washed 3 times with 0.8 ml of the sterile PBS. After each administration of PBS into the lung, the gentle massage of the lung was carried out, PBS was drained by gravity. Finally, the final volume of the resulting bronchoalveolar lavage (BAL) was considered and written. A number of neutrophils was evaluated in the BAL (using the Diff-Quik staining). For histological study, the right lung lobe was fixed in 10% neutral formalin solution and embedded in paraffin by the standard procedure. Deparaffinated 5-micron shears were stained with hematoxylin-eosin. Each lesion was evaluated according to a 5-point scale: 1 point—the inflammatory infiltrate occupies 0-20% of the area of the histological preparation under study, 2 point—the inflammatory infiltrate occupies 21-40% of the area of the histological preparation under study, 3 points—the inflammatory infiltrate occupies 41-60% of the area of the histological preparation under study, 4 points—the inflammatory infiltrate occupies 61-80% of the area of the histological preparation under study, 5 points—the inflammatory infiltrate occupies 81-100% of the area of the histological preparation under study. Alveolar destruction index (DI) as the percentage of the damaged alveoli relative to the total number of alveoli was also calculated.

[5] = tested on: thermal pain irritation (hot plate); test: Thermal pain irritation model hot plate; type: in vivo, Balb/c mice
Procedure: The model of thermal pain irritation “hot plate” was carried out according to the standard procedure [Valdman A. V., Ignatov Y. D. Central mechanisms of pain. L.: Nauka, 1976]. The test compound was administered to Balb/c mice intragastrically, once. After 1, 4, 6, 12, 24 hours after the administration of the preparation, the “hot plate” test was carried out. To conduct the “hot plate” test, the mice were placed on the hot plate, the temperature (+55±1° C.) of which is constant. The time of first manifestations of the pain response in mice (paw licking, jumping) was registered and the mean latent time of the threshold of pain sensitivity (TPS, sec) in each group was calculated.

MCP-1 (CCL2) = test: MCP-1 level in blood serum of mice on the psoriasis model (ELISA); type: in vivo, female Balb/c mice; conditions: day 7, 30 mg/kg intragastric, M ± m, n = 10
Procedure: as §1

[6] = tested on: macrophage chemotaxis (thioglycolate peritonitis); test: Macrophage chemotaxis to the site of inflammation (thioglycolate peritonitis) in mice; type: in vivo, male Balb/c mice
Procedure: The induction of macrophage chemotaxis to the site of inflammation (thioglycolate peritonitis) in mice were performed according to the standard procedure [J Leukoc Biol. 2009. V. 86.(2). P. 361-370]. Male Balb/c mice were intraperitoneally administered with 2 ml of 3% thioglycolic medium stored for 1 month. The preparation of thioglycolic medium was carried out as follows: 15 g of dry thioglycolic medium was stirred in 500 ml of distilled water, was boiled at 100° C. for 2 minutes, was filtered through a paper filter, was poured out by 50 ml in sterile tubes and was sterilized by autoclaving at 121° C. for 15 minutes. […]
After 72 hours, the animals were euthanized in a CO2-chamber and the peritoneum area was wetted with 70% alcohol, the skin on the abdominal cavity was carefully cut off, and 5 ml of a cold phosphate-saline buffer containing 0.1% of ethylenediamine tetraacetic acid was injected intraperitoneally with a syringe. After gentle massage of the abdominal cavity, the exudate was collected by a syringe into tubes, and the volume of the collected exudate was determined.
Smears were prepared from the cell pellet, which smears were further fixed in methanol (5 minutes) and stained by Romanowsky-Giemsa (40 min at 20-22° C.). On the smears, under the microscope Olympus bx51 (at magnification 100) the quantity of monocytes/macrophages was counted by the routine method. […]

[7] = 30 mg/kg intragastric, 48 hours after carrageenan, M ± m, n = 10
[8] = 30 mg/kg intragastric daily day 6-19, 5-point scale, M ± m, n = 7

O=C1CCCC(=O)N1CCc1cnc[nH]1 [Compound 1, 1-(2-(1H-imidazol-4-yl)ethyl)piperidine-2,6-dione]
The gain of the ear thickness at the determined day of study to day 0, Day 2 (mouse model of psoriasis): 7.8 ± 1.4& %
The gain of the ear thickness at the determined day of study to day 0, Day 3 (mouse model of psoriasis): 11.2 ± 1.9& %
The gain of the ear thickness at the determined day of study to day 0, Day 4 (mouse model of psoriasis): 33.8 ± 1.6& %
Clinical signs of psoriasis, Erythema, Day 4 (mouse model of psoriasis): 1.5 ± 0.1*& points
Clinical signs of psoriasis, Flakes, Day 4 (mouse model of psoriasis): 0.0 ± 0.0& points
Clinical signs of psoriasis, Thickening, Day 4 (mouse model of psoriasis): 0.9 ± 0.1*& points
The gain of the ear thickness at the determined day of study to day 0, Day 5 (mouse model of psoriasis): 46.9 ± 1.6*& %
The gain of the ear thickness at the determined day of study to day 0, Day 6 (mouse model of psoriasis): 55.8 ± 0.8*& %
Clinical signs of psoriasis, Erythema, Day 6 (mouse model of psoriasis): 1.3 ± 0.1*& points
Clinical signs of psoriasis, Flakes, Day 6 (mouse model of psoriasis): 0.1 ± 0.1& points
Clinical signs of psoriasis, Thickening, Day 6 (mouse model of psoriasis): 1.3 ± 0.1*& points
Macrophages in the exudate from the carrageenan pouch [1, 7]: 0.6 ± 0.2 & ×10^9/l
Neutrophils in the exudate from the carrageenan pouch [1, 7]: 0.6 ± 0.1 & ×10^9/l
Quantity of neutrophils and macrophages in the pouch cavity ([1]; intragastric administration): to the level of intact animals
Quantity of constrictions for 15 minutes ([2]; 1 hour before the administration of acetic acid): 23.8 ± 3.7
Quantity of constrictions for 15 minutes ([2]; 2 hour before the administration of acetic acid): 22.7 ± 2.6
Interstitial pneumonia [3]: 1.08 ± 0.16& points
Peribronchitis [3]: 0.13 ± 0.07& points
Perivasculitis [3]: 1.03 ± 0.11& points
Interstitial pneumonia [4, 8]: 0.76 ± 0.1& points
Peribronchitis [4, 8]: 0.73 ± 0.32& points
Perivasculitis [4, 8]: 0.80 ± 0.31& points
Neutrophils in 1 μl Score (bronchoalveolar lavage) ([4]; 30 mg/kg intragastric daily day 6-19, M ± m, n = 7): 0.0 ± 0.0& in 1 μl
Influx of neutrophils into the bronchoalveolar space ([4]; intragastric administration): completely abolished
Increase of the threshold of pain sensitivity in the hot plate test ([5]; intragastric administration): 2 times
MCP-1 level in blood serum (MCP-1 (CCL2)): 113.7 ± 8.3 & pg/ml
Macrophages in peritoneal exudate ([6]; 30 mg/kg intragastric, 72 hours after thioglycolate): 0.84 ± 0.16 & ×10^9/l
Quantity of macrophages in the peritoneal exudate ([6]; intragastric administration): to the level of intact animals

COc1cc(C)c(/C=C/C(C)=C/C=C/C(C)=C/C(=O)O)c(C)c1C [Neotigason, reference compound]
The gain of the ear thickness at the determined day of study to day 0, Day 2 (mouse model of psoriasis): 14.2 ± 1.9*& %
The gain of the ear thickness at the determined day of study to day 0, Day 3 (mouse model of psoriasis): 27.5 ± 1.8*& %
The gain of the ear thickness at the determined day of study to day 0, Day 4 (mouse model of psoriasis): 45.9 ± 2.5*& %
Clinical signs of psoriasis, Erythema, Day 4 (mouse model of psoriasis): 1.2 ± 0.1*& points
Clinical signs of psoriasis, Flakes, Day 4 (mouse model of psoriasis): 0.0 ± 0.0& points
Clinical signs of psoriasis, Thickening, Day 4 (mouse model of psoriasis): 1.4 ± 0.1*& points
The gain of the ear thickness at the determined day of study to day 0, Day 5 (mouse model of psoriasis): 68.9 ± 1.8 %
The gain of the ear thickness at the determined day of study to day 0, Day 6 (mouse model of psoriasis): 83.1 ± 1.4 %
Clinical signs of psoriasis, Erythema, Day 6 (mouse model of psoriasis): 1.6 ± 0.1*& points
Clinical signs of psoriasis, Flakes, Day 6 (mouse model of psoriasis): 0 ± 0& points
Clinical signs of psoriasis, Thickening, Day 6 (mouse model of psoriasis): 1.3 ± 0.1*& points

O=C(c1ccccc1)c1ccc2n1CCC2C(=O)O (centres unmarked) [Ketorol]
TPS, % to the values before the administration of the preparation, after 1 hours ([5]; 1 hour after single intragastric dose, Compound 1 30 mg/kg, Ketorol 15 mg/kg, M ± m, n = 12): 146.4 ± 16.6%
TPS, % to the values before the administration of the preparation, after 4 hours ([5]; 4 hours after single intragastric dose, Compound 1 30 mg/kg, Ketorol 15 mg/kg, M ± m, n = 12): 195.9 ± 30.0 %
TPS, % to the values before the administration of the preparation, after 6 hours ([5]; 6 hours after single intragastric dose, Compound 1 30 mg/kg, Ketorol 15 mg/kg, M ± m, n = 12): 176.6 ± 34.0%
TPS, % to the values before the administration of the preparation, after 12 hours ([5]; 12 hours after single intragastric dose, Compound 1 30 mg/kg, Ketorol 15 mg/kg, M ± m, n = 12): 166.5 ± 25.3%
TPS, % to the values before the administration of the preparation, after 24 hours ([5]; 24 hours after single intragastric dose, Compound 1 30 mg/kg, Ketorol 15 mg/kg, M ± m, n = 12): 159.7 ± 22.4%
